Results taken from ChEMBL document CHEMBL6087417, “The synthesis and antileukemic activity of 5-substituted thiazolyl urea derivatives” (Bioorg Med Chem Lett, 2025).

How the values were obtained:
[1] = system: THP-1; test: Antileukemic activity against human THP-1 cells assessed as inhibition of cell proliferation by MTS assay; assay type: functional, cell-based
[2] = system: MV4-11; test: Antileukemic activity against human MV4-11 cells assessed as inhibition of cell proliferation by MTS assay; assay type: functional, cell-based
[3] = Cytotoxicity against PBMC (unknown origin) assessed as cell survival at 20 uM relative to control; assay type: toxicity, cell-based; conditions: read-out: Survival

Row | IC50 [1] | IC50 [2] | Structure (SMILES) | viability at 20 µM [3]
1 | 3480 nM | 2880 nM | Cc1ccc(N2CCN(C(=O)Nc3ncc(Cc4cccc(Br)c4)s3)CC2)cc1 | 
2 | > 20000 nM | 14800 nM | CC1CN(C(=O)Nc2ncc(Cc3cccc(Br)c3)s2)CCN1c1ccc(Cl)cc1 (configuration not stated) | 
3 | 190 nM | 170 nM | O=C(Nc1ncc(Cc2cccc(Br)c2)s1)N1CCN(c2ccc(F)cc2)CC1 | 
4 | > 20000 nM | > 20000 nM | O=C(Nc1ncc(Cc2cccc(Br)c2)s1)N1CCN(c2cc(C(F)(F)F)cc(C(F)(F)F)c2)CC1 | 
5 | > 20000 nM | > 20000 nM | O=C(Nc1ncc(Cc2cccc(Br)c2)s1)N1CCN(c2cc(Cl)cc(Cl)c2)CC1 | 
6 | 290 nM | 310 nM | COc1ccc(Cc2cnc(NC(=O)N3C4CC[C@@H]3CN(c3ccc(Cl)cc3)C4)s2)cc1 | 
7 |  | 24 nM | CCc1nc(C(N)=O)c(Nc2ccc(N3CCC(N4CCN(C)CC4)CC3)c(OC)c2)nc1NC1CCOCC1 [GILTERITINIB] | 
8 | 460 nM |  | Nc1ccn([C@@H]2O[C@H](CO)[C@@H](O)[C@@H]2O)c(=O)n1 [CYTARABINE] | 
9 | 660 nM | 890 nM | N#Cc1ccc(N2CCN(C(=O)Nc3ncc(Cc4cccc(Br)c4)s3)CC2)cc1 | 
10 | > 20000 nM | > 20000 nM | O=C(Nc1ncc(Cc2cccc(OCCCN3CCOCC3)c2)s1)N1CCN(c2ccc(Cl)cc2)CC1 | 
11 | > 20000 nM | > 20000 nM | CCOc1cccc(Cc2cnc(NC(=O)N3CCN(c4ccc(Cl)cc4)CC3)s2)c1 | 
12 | > 20000 nM | > 20000 nM | O=C(Nc1ncc(Cc2ccc(Br)cc2)s1)N1CCN(c2ccc(O)cc2)CC1 | 
13 | > 20000 nM | > 20000 nM | O=C(Nc1ncc(Cc2cccc(Br)c2)s1)N1CCN(c2cccc(C(F)(F)F)n2)CC1 | 
14 | 1390 nM | 1490 nM | CC1CCN(C(=O)Nc2ncc(Cc3ccc(Br)cc3)s2)CC1 | 
15 | > 20000 nM | 210 nM | Cc1cccc(Cc2cnc(NC(=O)N3CCN(c4ccc(Cl)cc4)CC3)s2)c1 | 
16 | 200 nM | 390 nM | O=C(Nc1ncc(Cc2cccc(Cl)c2)s1)N1CCN(c2ccc(Cl)cc2)CC1 | 
17 | 210 nM | 130 nM | COc1cccc(Cc2cnc(NC(=O)N3CCN(c4ccc(Cl)cc4)CC3)s2)c1 | 
18 | > 20000 nM | 9730 nM | O=C(Nc1ncc(Cc2cccc(Br)c2)s1)N1C2CC[C@@H]1CN(c1ccc(Cl)cc1)C2 | 
19 | 1610 nM | 1320 nM | O=C(Nc1ncc(Cc2cccc(Br)c2)s1)N1CCN(c2ccccc2Cl)CC1 | 
20 | > 20000 nM | > 20000 nM | O=C(Nc1ncc(Cc2cccc(Br)c2)s1)N1CCN(C(=O)c2ccc(Cl)cc2)CC1 | 
21 | 1780 nM | 1110 nM | Cc1ccc(N2CCN(C(=O)Nc3ncc(Cc4ccc(Br)cc4)s3)CC2)cc1 | 
22 | 180 nM | 230 nM | O=C(Nc1ncc(Cc2ccc(C(F)(F)F)cc2)s1)N1CCN(c2ccc(Cl)cc2)CC1 | 
23 | > 20000 nM | 9980 nM | O=C(Nc1ncc(Cc2cccc(Br)c2)s1)N1CCN(c2cccc(Cl)c2)CC1 | 
24 | > 20000 nM | 11100 nM | O=C(Nc1ncc(Cc2cccc(Br)c2)s1)N1CC2CC1CN2c1ccc(Cl)cc1 (configuration not stated) | 
25 | 370 nM | 300 nM | O=C(Nc1ncc(Cc2cccc(C(F)(F)F)c2)s1)N1CCN(c2ccc(Cl)cc2)CC1 | 
26 | > 20000 nM | > 20000 nM | O=C(Nc1ncc(Cc2cccc(Br)c2)s1)N1CCN(c2cccc(Br)n2)CC1 | 
27 | > 20000 nM | 5310 nM | Cc1ccnc(N2CCN(C(=O)Nc3ncc(Cc4cccc(Br)c4)s3)CC2)c1 | 

Row | IC50 [1] | IC50 [2] | Structure (SMILES) | viability at 20 µM [3]
28 | 1300 nM | 1120 nM | O=C(Nc1ncc(Cc2ccccc2Br)s1)N1CCN(c2ccc(Cl)cc2)CC1 | 
29 | 330 nM | 260 nM | O=C(Nc1ncc(Cc2cccc(Br)c2)s1)N1CCN(c2ccc(Cl)cc2)CC1 | 
30 | 3840 nM | 1890 nM | CC1CCN(C(=O)Nc2ncc(Cc3ccccc3Br)s2)CC1 | 
31 | > 20000 nM | > 20000 nM | O=C(Nc1ncc(Cc2cccc(Br)c2)s1)N1CCN(Cc2ccc(Cl)cc2)CC1 | 
32 | 1110 nM | 160 nM | O=C(Nc1ncc(Cc2ccccc2Cl)s1)N1CCN(c2ccc(Cl)cc2)CC1 | 
33 | 370 nM | 550 nM | O=C(Nc1ncc(Cc2ccc(Br)cc2)s1)N1CCN(c2ccc(Cl)cc2)CC1 | 
34 | > 20000 nM | > 20000 nM | O=C(Nc1ncc(Cc2cccc(Br)c2)s1)N1CCCN(c2ccc(Cl)cc2)CC1 | 
35 | 680 nM | 620 nM | O=C(Nc1ncc(Cc2cccc(Br)c2)s1)N1CCN(c2ccc(Cl)cn2)CC1 | 
36 | > 20000 nM | > 20000 nM | O=C(Nc1ncc(Cc2cccc(Br)c2)s1)N1CCN(c2cccc(F)n2)CC1 | 
37 | 360 nM | 190 nM | COc1ccccc1Cc1cnc(NC(=O)N2CCN(c3ccc(Cl)cc3)CC2)s1 | 
38 | 9580 nM | 2800 nM | Cc1ccc(N2CCN(C(=O)Nc3ncc(Cc4ccccc4Br)s3)CC2)cc1 | 
39 | > 20000 nM | > 20000 nM | O=C(Nc1ncc(Cc2cccc(Br)c2)s1)N1CCN(S(=O)(=O)c2ccc(Cl)cc2)CC1 | 
40 | 130 nM | 130 nM | COCc1cccc(Cc2cnc(NC(=O)N3CCN(c4ccc(Cl)cc4)CC3)s2)c1 | 
41 | > 20000 nM | 2050 nM | O=C(Nc1ncc(Cc2cccc(Br)c2)s1)N1CCN(c2ccc([N+](=O)[O-])cc2)CC1 | 
42 | 270 nM | 310 nM | COc1ccc(Cc2cnc(NC(=O)N3CCCN(c4ccc(Cl)cc4)CC3)s2)cc1 | 
43 | > 20000 nM | > 20000 nM | CC(C)Oc1cccc(Cc2cnc(NC(=O)N3CCN(c4ccc(Cl)cc4)CC3)s2)c1 | 
44 | > 20000 nM | 4500 nM | O=C(Nc1ncc(Cc2cccc(Br)c2)s1)N1CCN(c2ccc(C(F)(F)F)cc2)CC1 | 
45 | 110 nM | 140 nM | O=C(Nc1ncc(Cc2cccc(O)c2)s1)N1CCN(c2ccc(Cl)cc2)CC1 | 
46 | 3240 nM | 2410 nM | CC1CCN(C(=O)Nc2ncc(Cc3cccc(Br)c3)s2)CC1 | 
47 | 4080 nM | 1310 nM | O=C(Nc1ncc(Cc2cccc(Br)c2)s1)N1CCN(c2ccccc2)CC1 | 
48 | > 20000 nM | 4990 nM | O=C(Nc1ncc(Cc2ccccc2C(F)(F)F)s1)N1CCN(c2ccc(Cl)cc2)CC1 | 
49 | > 20000 nM | 16800 nM | O=C(Nc1ncc(Cc2cccc(Br)c2)s1)N1CCN(c2cccc(Cl)n2)CC1 | 
50 | > 20000 nM | > 20000 nM | Cc1cccc(N2CCN(C(=O)Nc3ncc(Cc4cccc(Br)c4)s3)CC2)n1 | 
51 | 170 nM | 210 nM | O=C(Nc1ncc(Cc2ccc(Cl)cc2)s1)N1CCN(c2ccc(Cl)cc2)CC1 | 
52 | 2410 nM | 1460 nM | O=C(Nc1ncc(Cc2ccccc2Br)s1)N1CCN(c2ccccc2)CC1 | 
53 | 4050 nM | 1850 nM | O=C(Nc1ncc(Cc2ccc(Br)cc2)s1)N1CCN(c2ccccc2)CC1 | 

Row | Structure (SMILES) | IC50 [1] | IC50 [2] | viability at 20 µM [3]
54 | COc1ccc(Cc2cnc(NC(=O)N3CCN(c4ccc(Cl)cc4)CC3)s2)cc1 | 29 nM | 98 nM | 91.7%
